Measured values reported in patent US10858316B2, “Small molecule inhibitors of the MCL-1 oncoprotein and uses thereof” (University of Maryland, Baltimore, priority 2015, dated 2020).
Where two headings read alike, the source gives them in different places.

Assays:
Bcl-xL = Bcl-xL (Homo sapiens (Human), UniProt Q07817); assay: Fluorescence polarization competition assay, Bcl-xL; assay type: binding; details: for Bcl-xL Exp ΔG: ΔG from experimental Ki
Procedure: Fluorescence polarization experiments were conducted using a BMG PHERAstar FS multimode microplate reader equipped with two PMTs for simultaneous measurements of the perpendicular and parallel fluorescence emission. The assays were performed in black polypropylene 384-well microplate (Costar) with a final volume of 20 microliter. […] Regression analysis was carried out using Origin (OriginLab, Northampton, Mass.) to fit the data to the Hill equation (1) to determine the initial binding affinity (KD) and the IC50 in the FPCA. For the fluorescence polarization competition titrations, an equation derived by Nikolovska-Coleska et al. was used to calculate the Ki from the IC50 data.

Mcl-1 [1] = assay: Fluorescence polarization competition assay (FPCA), Mcl-1 / FITC-Bak BH3 peptide; assay type: binding, human; details: for Exp. ΔG diff.: between Mcl-1 and Bcl-xL, positive favors Mcl-1; for Selectivity, Ki (Bcl-xL) divided by Ki (Mcl-1): Mcl-1 over Bcl-xL
Procedure, shortened: (§1)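 Purified Mcl-1 (affinity tag cleaved, size-exclusion polished) competed against FITC-labeled Bak-BH3 peptide, read by fluorescence polarization. IC50 from Hill-equation fit; Ki derived from IC50 by the Nikolovska-Coleska equation.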

Mcl-1 [2] = molecular target: Mcl-1 (Homo sapiens (Human), UniProt Q07820); assay: as above; assay type: binding; details: for Mcl-1 Exp ΔG: ΔG=−RTlnKi from experimental Ki
Sequence of Mcl-1 (Homo sapiens (Human), UniProt Q07820) (Q07820 172-327): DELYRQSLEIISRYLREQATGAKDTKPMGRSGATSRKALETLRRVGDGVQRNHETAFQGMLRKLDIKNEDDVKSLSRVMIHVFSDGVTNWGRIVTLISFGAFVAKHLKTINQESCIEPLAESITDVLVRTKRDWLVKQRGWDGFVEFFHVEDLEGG
Procedure, shortened: as §1

[3] = Ki from IC50 by Nikolovska-Coleska equation, NA = no activity, read-out: Bcl-xL Ki
[4] = FPCA with FITC-Bak, Ki from IC50 by Nikolovska-Coleska equation, read-out: Mcl-1 Ki

Sequence of Bcl-xL (Q07817 whole entry): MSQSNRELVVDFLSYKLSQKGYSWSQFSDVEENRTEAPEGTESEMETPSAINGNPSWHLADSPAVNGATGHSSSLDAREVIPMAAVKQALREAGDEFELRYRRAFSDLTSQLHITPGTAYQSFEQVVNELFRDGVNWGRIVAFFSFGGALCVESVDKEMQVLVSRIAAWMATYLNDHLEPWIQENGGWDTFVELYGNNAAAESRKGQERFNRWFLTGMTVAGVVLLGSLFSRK

Bcl-xL Exp ΔG (Bcl-xL) [kcal/mol]	Mcl-1 Exp ΔG (Mcl-1 [2]) [kcal/mol]	Ki (Bcl-xL; [3]) [µM]	Selectivity, Ki (Bcl-xL) divided by Ki (Mcl-1) (Mcl-1 [1])	Ki (Mcl-1 [2]; [4]) [µM]	Compound	Exp. ΔG diff. (Mcl-1 [1]) [kcal/mol]	also measured
		338 ± 203	16	21 ± 3.9	O=C(O)c1cc(S(=O)(=O)NCc2ccc(Cl)cc2)c2ccccc2c1O [Compound 3f, 4-(N-(4-Chlorobenzyl)sulfamoyl)-1-hydroxy-2-naphthoic Acid]		
		0.3 ± 0.04	3.8	0.114	O=C(O)c1cc(S(=O)(=O)Nc2ccc(Oc3cccc(Br)c3)cc2)c2ccccc2c1O [Compound 3be, 4-(N-(4-(3-Bromophenoxy)phenyl)sulfamoyl)-1-hydroxy-2-naphthoic Acid]		
		0.39 ± 0.1	1.4	0.284	Cc1cc(C)cc(Oc2ccc(NS(=O)(=O)c3cc(C(=O)O)c(O)c4ccccc34)cc2)c1 [Compound 3bf, 4-(N-(4-(3,5-Dimethylphenoxy)phenyl)sulfamoyl)-1-hydroxy-2-naphthoic Acid]		
		51.4 ± 31.3	19	2.76	O=C(O)c1cc(S(=O)(=O)Nc2ccc(Br)cc2)c2ccccc2c1O [Compound 3a, 4-(N-(4-bromophenyl)sulfamoyl)-1-hydroxy-2-naphthoic Acid]		IC50 (Mcl-1 [2]; FPCA, read-out: IC50 disruption of Mcl-1-Bak-BH3 PPI): 10.9 µM
		0.22 ± 0.06	3.7	0.082	O=C(O)c1cc(S(=O)(=O)Nc2ccc(Oc3cccc4ccccc34)cc2)c2ccccc2c1O [Compound 3bd, 1-Hydroxy-4-(N-(4-(naphthalen-1-yloxy)phenyl)sulfamoyl)-2-naphthoic Acid]		
		23.3 ± 2.5	5.2	4.49 ± 1.2	O=C(O)c1cc(S(=O)(=O)Nc2ccc([N+](=O)[O-])cc2)c2ccccc2c1O [Compound 3ac, 1-Hydroxy-4-(N-(4-nitrophenyl)sulfamoyl)-2-naphthoic Acid]		
		0.84 ± 0.05	2.5	0.335	Cc1ccc(Oc2ccc(NS(=O)(=O)c3cc(C(=O)O)c(O)c4ccccc34)cc2)cc1 [Compound 3bc, 1-Hydroxy-4-(N-(4-(p-tolyloxy)phenyl)sulfamoyl)-2-naphthoic Acid]		
		0.48 ± 0.05	4.1	0.117 ± 0.06	Cc1cc(Oc2ccc(NS(=O)(=O)c3cc(C(=O)O)c(O)c4ccccc34)cc2)cc(C)c1Cl [Compound 3bi, 4-(N-(4-(4-Chloro-3,5-dimethylphenoxy)phenyl)sulfamoyl)-1-hydroxy-2-naphthoic Acid]		
		0.19 ± 0.02	2.4	0.079	O=C(O)c1cc(S(=O)(=O)Nc2ccc(Oc3ccc(Cl)cc3Cl)cc2)c2ccccc2c1O [Compound 3bg, 4-(N-(4-(2,4-Dichlorophenoxy)phenyl)sulfamoyl)-1-hydroxy-2-naphthoic Acid]		
		0.17 ± 0.06	2.1	0.08 ± 0.019	Cc1cc(Oc2ccc(N(CC(C)C)S(=O)(=O)c3cc(C(=O)O)c(O)c4ccccc34)cc2)cc(C)c1Cl [Compound 3bj, 4-(N-(4-(4-Chloro-3,5-dimethylphenoxy)phenyl)-N-isobutylsulfamoyl)-1-hydroxy-2-naphthoic Acid]		

More lines, now with the values behind:

Compound	Bcl-xL Exp ΔG (Bcl-xL) [kcal/mol]	Mcl-1 Exp ΔG (Mcl-1 [2]) [kcal/mol]	Ki (Bcl-xL; [3]) [µM]	Selectivity, Ki (Bcl-xL) divided by Ki (Mcl-1) (Mcl-1 [1])	Ki (Mcl-1 [2]; [4]) [µM]	Exp. ΔG diff. (Mcl-1 [1]) [kcal/mol]	also measured
O=C(O)c1cc(S(=O)(=O)Nc2ccccc2C(F)(F)F)c2ccccc2c1O [3u; TA-1-017]	-6.43	-7.35				0.92	
O=C(O)c1cc(S(=O)(=O)Nc2cccc3ccccc23)c2ccccc2c1O [Compound 3p, 1-Hydroxy-4-(N-(naphthalen-1-yl)sulfamoyl)-2-naphthoic Acid]			110 ± 45	10	11.2 ± 2		
COc1ccc(NS(=O)(=O)c2cc(C(=O)O)c(O)c3ccccc23)cc1 [3z; MEL-3-018]	-5.65	-6.71				1.06	
O=C(O)c1cc(S(=O)(=O)Nc2ccc3ccccc3c2)c2ccccc2c1O [Compound 3q, 1-Hydroxy-4-(N-(naphthalen-2-yl)sulfamoyl)-2-naphthoic Acid]			68.5 ± 36.3	15	4.58 ± 1.56		
O=C(O)c1cc(S(=O)(=O)Nc2ccc(Oc3cccc(Br)c3)cc2)c2ccccc2c1O [3be; SF-5-303]	-8.89	-9.47				0.58	
Cc1cc(Oc2ccc(N(CC(C)C)S(=O)(=O)c3cc(C(=O)O)c(O)c4ccccc34)cc2)cc(C)c1Cl [3bj; JY-5-377]	-9.23	-9.68				0.45	
O=C(O)c1cc(S(=O)(=O)Nc2ccc([N+](=O)[O-])cc2)c2ccccc2c1O [3ac; MEL-3-005]	-6.31	-7.29				0.98	
O=C(O)c1cc(S(=O)(=O)Nc2ccc3ccccc3c2)c2ccccc2c1O [3q; EW-2-057]	-5.68	-7.28				1.60	
Cc1cc(Oc2ccc(NS(=O)(=O)c3cc(C(=O)O)c(O)c4ccccc34)cc2)cc(C)c1Cl [3bi; JY-5-371]	-8.61	-9.45				0.84	
Cc1cc(Oc2ccc(N(C3CCCC3)S(=O)(=O)c3cc(C(=O)O)c(O)c4ccccc34)cc2)cc(C)c1Cl [3bk; JY-5-379]	-8.91	-10.20				1.29	
O=C(O)c1cc(S(=O)(=O)Nc2ccc(Br)cc2Br)c2ccccc2c1O [Compound 3o, 4-(N-(2,4-Dibromophenyl)sulfamoyl)-1-hydroxy-2-naphthoic Acid]			2.31 ± 1.35	5.5			Ki (Mcl-1 [2]; FPCA, read-out: Mcl-1 Ki): 0.42 µM
O=C(O)c1cc(S(=O)(=O)Nc2cccc3ccccc23)c2ccccc2c1O [3p; EW-2-056]	-5.40	-6.75				1.35	
O=C(O)c1cc(S(=O)(=O)Nc2ccc(Oc3ccc(Cl)cc3Cl)cc2)c2ccccc2c1O [3bg; SF-5-302]	-9.16	-9.68				0.52	
O=C(O)c1cc(S(=O)(=O)Nc2ccc(Br)cc2Br)c2ccccc2c1O [3o; SF-5-290]	-7.68	-8.69				1.01	
O=C(O)c1cc(S(=O)(=O)NCC2CCCCC2)c2ccccc2c1O [3g; MEL-3-006]	-5.60	-7.00				1.40	
O=C(O)c1cc(S(=O)(=O)Nc2ccccc2C(F)(F)F)c2ccccc2c1O [Compound 3u, 1-Hydroxy-4-(N-(2-(trifluoromethyl)phenyl)sulfamoyl)-2-naphthoic Acid]			19.3 ± 9	4.8	4.05 ± 2.11		
Cc1ccc(Oc2ccc(NS(=O)(=O)c3cc(C(=O)O)c(O)c4ccccc34)cc2)cc1 [3bc; SF-5-301]	-8.28	-8.83				0.55	
CC(C)CN(c1ccc(C(=O)O)c(O)c1)S(=O)(=O)c1ccc(-c2ccccc2)cc1 [4jc117-4 13ac]			10.8 ± 2.55		4.11 ± 0.245		
CC(C)CN(c1ccc(O)c(C(=O)O)c1)S(=O)(=O)c1ccccc1 [JY-5-296 18ba]			49.3 ± 5.03		46.5 ± 9.82		
Cc1cc(Oc2ccc(S(=O)(=O)N(CC(C)C)c3ccc(C(=O)O)c(O)c3)cc2)cc(C)c1Cl [Compound 4jc117-6]							Ki (Bcl-xL; fluorescence polarization competition assay, read-out: Ki (μM) Bcl-xL): 0.05 ± 0.01 µM; Ki (Mcl-1 [2]; fluorescence polarization competition assay, read-out: Ki (μM) Mcl-1): 0.02 ± 0.012 µM
CC(C)CN(c1ccc(C(=O)O)c(O)c1)S(=O)(=O)c1ccccc1 [4jc117-1 13aa]			154 ± 27.6		192 ± 37.5		
